Measured values taken from patent US20070123491A1, “Podophyllotoxin derivatives as igf-1r inhibitors” (BIOVITRUM AB, priority 2003, published 2007).

Legend:
[1] = target: T1, IGF-1R (Homo sapiens, UniProt P08069); assay: Effect on IGF-1R (method not given)
Target sequence in this assay (P08069 31-1367, species assumed): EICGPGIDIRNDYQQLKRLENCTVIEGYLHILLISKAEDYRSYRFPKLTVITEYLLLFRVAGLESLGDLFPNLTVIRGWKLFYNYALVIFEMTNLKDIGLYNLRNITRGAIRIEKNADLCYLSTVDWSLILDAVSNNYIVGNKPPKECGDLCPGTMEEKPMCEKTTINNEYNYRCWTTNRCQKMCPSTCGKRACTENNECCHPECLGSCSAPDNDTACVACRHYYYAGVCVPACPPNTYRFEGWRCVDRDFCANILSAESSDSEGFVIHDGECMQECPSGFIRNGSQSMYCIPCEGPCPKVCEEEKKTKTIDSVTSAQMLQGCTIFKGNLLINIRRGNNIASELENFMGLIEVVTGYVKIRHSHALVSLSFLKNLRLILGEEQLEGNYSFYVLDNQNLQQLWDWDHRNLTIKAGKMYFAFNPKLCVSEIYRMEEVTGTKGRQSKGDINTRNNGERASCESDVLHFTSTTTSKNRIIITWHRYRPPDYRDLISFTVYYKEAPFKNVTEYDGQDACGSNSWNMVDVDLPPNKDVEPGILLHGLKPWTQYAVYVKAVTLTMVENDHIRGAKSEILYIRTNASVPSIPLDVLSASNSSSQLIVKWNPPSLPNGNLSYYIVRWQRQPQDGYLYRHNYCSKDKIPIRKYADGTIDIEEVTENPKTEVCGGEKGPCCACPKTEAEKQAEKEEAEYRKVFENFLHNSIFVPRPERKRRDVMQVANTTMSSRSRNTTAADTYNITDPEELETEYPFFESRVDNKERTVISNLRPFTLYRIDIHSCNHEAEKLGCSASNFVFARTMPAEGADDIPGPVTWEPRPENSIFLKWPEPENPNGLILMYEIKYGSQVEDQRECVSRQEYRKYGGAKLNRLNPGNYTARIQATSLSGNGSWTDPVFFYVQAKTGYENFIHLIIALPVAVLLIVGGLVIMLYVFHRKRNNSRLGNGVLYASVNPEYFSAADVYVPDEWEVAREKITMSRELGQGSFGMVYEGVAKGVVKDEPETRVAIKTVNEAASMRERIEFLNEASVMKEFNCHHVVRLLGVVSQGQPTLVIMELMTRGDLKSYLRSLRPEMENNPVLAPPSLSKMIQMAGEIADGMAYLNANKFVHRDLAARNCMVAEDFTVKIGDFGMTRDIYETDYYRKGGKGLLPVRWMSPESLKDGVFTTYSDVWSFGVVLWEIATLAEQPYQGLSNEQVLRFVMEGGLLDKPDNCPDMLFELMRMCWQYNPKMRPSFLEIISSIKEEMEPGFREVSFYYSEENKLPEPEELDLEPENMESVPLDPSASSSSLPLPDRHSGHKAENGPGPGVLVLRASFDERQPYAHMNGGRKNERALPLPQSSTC

[2] = target: T2, IGF-1R from P6 cell extract (Homo sapiens, UniProt P08069); assay: In vitro tyrosine kinase assay: IGF-1R-catalyzed pTG substrate phosphorylation; type: biochemical; conditions: cell-free
T2 construct: expressed in transfected cells; host or cells: P6 cell line (embryonic mouse fibroblasts)
Protocol: (§1) IGF-1R-catalyzed substrate phosphorylation of polyTyrGlu (pTG) was performed essentially as previously described [Parrizas M., et al., see above, and Blum G., et al., see above]. Immunoprecipitated IR from HepG2, IGF-1R from P6 cell extract and immunodepleted supernatant to assay non-IGF-1R tyrosine kinases. The phosphorylated polymer substrate was probed with a purified phosphotyrosine specific monoclonal antibody conjugated to horseradish peroxidase (HARP). Color was developed with HRP chromogenic substrate o-phenylenediamine dihydrochloride (OPD). The color was quantitated by spectrophotometry (BLISA reader) and reflects the relative amount of tyrosine kinase. The precipitate was immunoblotted with antibodies to IGF-1R and IR to verify the presence of the receptor. Serial dilutions were used to assay the optimal conditions with respect to the amount of IGF-1R and IR. The signal was linear for 30 minutes and was a function of IGF-1R concentration up to 75 ng/well. Briefly, 96 well plates (Immunolon, Nunc) were coated overnight at 4° C. with a mouse monoclonal antibody (LabVision) against the beta-subunit of IGF-1R at a concentration of 1 μg/ml. […]
(§2) We isolated the receptor and determined the effects of 4,5-demethylene-deoxypodophyllotoxin on IGF-1R catalyzed substrate tyrosine phosphorylation and IGF-1R autophosphorylation in-vitro. […]

[3] = target: T3, epidermal growth factor receptor (EGFR) (Homo sapiens, UniProt P00533); assay: Tyrosine phosphorylation of EGFR in intact FM55 melanoma cells; type: cell-based; conditions: Experiment 3, 0.7 μM, 1 h, control = 100%
T3 construct: endogenous in cells; host or cells: FM55 human melanoma cells
Protocol: (§3) Cells were cultured to subconfluency in 6-cm plates, and then fresh medium containing 10% FBS and the desired compounds were added for 1 h. The cells were then lyzed and subjected to immunoprecipitation using specific antibodies. Immunoprecipitates were resolved by sodium dodecyl sulphate polyacrylamide gel electrophoresis (SDS-PAGE) and transferred to nitro-cellulose membranes and incubated with anti-phosphotyrosine antibody. Antibodies to actin (in cell extract) or IGF-1R beta subunit were used as loading controls. After detection the films were scanned for quantification.
(§4) The isolated cells were then lyzed in 10 ml ice-cold PBSTDS containing protease inhibitors (Carlberg, M., et al., J Biol Chem 271:17453-17462, 1996). 50 μl protein A or G agarose was added in 1 ml sample and incubated for 15 min at 4° C. on an orbital shaker. […] The protein content was determined by a dye-binding assay with a reagent purchased from Bio-Rad. […]
(§5) Following SDS-PAGE the proteins were transferred overnight to nitro-cellulose membranes (Hybond, Amersham, UK) and then blocked for 1 h at room temperature in a solution of 4% skimmed milk powder and 0.02% Tween 20 in PBS, pH 7.5. […] After another 3 washes the membranes were incubated with Streptavidin-labelled horseradish peroxidase for 30 min and then detected using Amersham ECL system (Amersham, UK). […]

[4] = target: T1, IGF-1R; assay: IGF-1R tyrosine autophosphorylation, sandwich ELISA; type: biochemical; conditions: cell-free; stronger response by podophyllotoxin
Protocol: IGF-1R tyrosine autophosphorylation was analysed by a sandwich ELISA assay. Briefly, 96-well plates (Immunolon, Nunc) were coated overnight at 4° C. with 1 μg/well of the monoclonal antibody Ab-5 (LabVision) to the IGF-1R beta subunit. The plates were blocked with 1% BSA in PBS Tween for 1 h, then 80 µg/well of total protein lysate from the P6 cell line was added. As a negative control was used total protein lysate from R-cell line. The investigated compounds were added in tyrosine kinase buffer without ATP at room temperature for 30 min, prior to kinase activation with ATP. Kinase assay was performed using the Sigma kit.
We isolated the receptor and determined the effects of 4,5-demethylene-deoxypodophyllotoxin on IGF-1R catalyzed substrate tyrosine phosphorylation and IGF-1R autophosphorylation in-vitro. […] A stronger response was obtained by podophyllotoxin.
Target sequence in this assay (P08069 31-1367): as the sequence (P08069 31-1367, species assumed) above

[5] = target: T4, insulin receptor (IR from HepG2) (Homo sapiens, UniProt P06213); assay: In vitro tyrosine kinase assay: insulin receptor substrate phosphorylation; type: biochemical; conditions: cell-free; data not shown
T4 construct: Immunoprecipitated IR from HepG2; endogenous in cells; host or cells: HepG2
Protocol: as §1, §2

[6] = test system: platelet-derived growth factor receptor (PDGFR); assay: Tyrosine phosphorylation of PDGFR in intact FM55 melanoma cells; type: cell-based, human; conditions: Experiment 3, 0.7 μM, 1 h, control = 100%
Protocol: as §3, §4, §5

[7] = test system: fibroblast growth factor receptor (FGFR); assay: Tyrosine phosphorylation of FGFR in intact FM55 melanoma cells; type: cell-based, human; conditions: Experiment 3, 0.7 μM, 1 h, control = 100%
Protocol: as §3, §4, §5

[8] = test system: insulin substrate-1 (IRS-1); assay: Tyrosine phosphorylation of IRS-1 in intact FM55 melanoma cells; type: cell-based, human; conditions: Experiment 3, 0.7 μM, 1 h, control = 100%
Protocol: as §3, §4, §5

[9] = target: T1, IGF-1R; assay: Tyrosine phosphorylation of IGF-1R in intact FM55 melanoma cells (immunoprecipitation, Western blot); type: cell-based; parameters: endogenous in cells; host or cells: FM55 human melanoma cells; conditions: 0.7 μM, 1 h; for Level of IGF-1R phosphorylation in intact cells (% OD): Experiment 1, FM55 melanoma cells, control OD = 100%; for Level of phosphorylation in intact cells (% OD), substrate IGF-1R: Experiment 3, FM55 cells, control = 100%
Protocol: as §3
Target sequence in this assay (P08069 31-1367): as the sequence (P08069 31-1367, species assumed) above
The isolated cells were then lyzed in 10 ml ice-cold PBSTDS containing protease inhibitors (Carlberg, M., et al., J Biol Chem 271:17453-17462, 1996). 50 μl protein A or G agarose was added in 1 ml sample and incubated for 15 min at 4° C. on an orbital shaker. After centrifugation for 10 min at 10,000 r/min at 4° C. the supernatant was saved. The protein content was determined by a dye-binding assay with a reagent purchased from Bio-Rad. Bovine serum albumin was used as a standard. 15 μl Protein G Plus agarose and 5 μl anti-IGF-1R were added. After a 3 h incubation at 4° C. on an orbital shaker the precipitate was collected by pulse centrifugation in a micro centrifuge at 14,000×g for 10 s. The supernatant was discarded and the pellet was washed 3 times with PBSTDS.
Protein samples were solved in a 2×-sample buffer containing Laemmli buffer and 0.5% […] and boiled for 5 min at 96° C. Samples were separated by SDS-PAGE with a 4% stacking gel and 7.5% separation gel. Molecular weight markers (Bio Rad, Sweden) were run simultaneously in all experiments.
Following SDS-PAGE the proteins were transferred overnight to nitro-cellulose membranes (Hybond, Amersham, UK) and then blocked for 1 h at room temperature in a solution of 4% skimmed milk powder and 0.02% Tween 20 in PBS, pH 7.5. Incubations with the primary antibodies were performed for 1 h at room temperature, followed by 3 washes with PBS with Tween and incubation with the second antibody for 1 h room temperature. After another 3 washes the membranes were incubated with Streptavidin-labelled horseradish peroxidase for 30 min and then detected using Amersham ECL system (Amersham, UK). The films were scanned by Fluor-S (BioRad).
Melanoma cells (line FM55) were seeded in 6-cm dishes, at a concentration of 10,000 cells/cm2 in Minimal Essential Medium supplemented with 10% fetal calf serum (FCS). […] Phosphorylation of IGF-1R was detected by an anti-phosphotyrosine antibody using Western blotting. […] The intensities are quantified by a scanner, which measures the optical density (OD) of the signals. […]

[10] = target: T5, insulin receptor (IR) (Homo sapiens, UniProt P06213); assay: Tyrosine phosphorylation of IR in intact FM55 melanoma cells; type: cell-based; conditions: Experiment 3, 0.7 μM, 1 h, control = 100%
T5 construct: endogenous in cells; host or cells: FM55 human melanoma cells
Protocol: as §3, §4, §5

[11] = target: epidermal growth factor receptor (Homo sapiens, UniProt P00533); assay: In vitro tyrosine kinase assay: EGFR substrate phosphorylation; type: biochemical; conditions: cell-free; data not shown
[12] = test system: non-IGF-1R kinases; assay: In vitro tyrosine kinase assay: non-IGF-1R kinases (IGF-1R immunodepleted supernatant); type: biochemical; conditions: cell-free; kinases obtained by immunodepletion of IGF-1R; data not shown
Protocol: as §1, §2

[13] = target: isolated IGF-1R kinase (Homo sapiens, UniProt P08069); conditions: Blum et al., Biochemistry 2000; cited from earlier work
[14] = target: insulin receptor kinase (Homo sapiens, UniProt P06213); conditions: Blum et al., Biochemistry 2000; cited from earlier work
Sequence of insulin receptor kinase (P06213 28-1382): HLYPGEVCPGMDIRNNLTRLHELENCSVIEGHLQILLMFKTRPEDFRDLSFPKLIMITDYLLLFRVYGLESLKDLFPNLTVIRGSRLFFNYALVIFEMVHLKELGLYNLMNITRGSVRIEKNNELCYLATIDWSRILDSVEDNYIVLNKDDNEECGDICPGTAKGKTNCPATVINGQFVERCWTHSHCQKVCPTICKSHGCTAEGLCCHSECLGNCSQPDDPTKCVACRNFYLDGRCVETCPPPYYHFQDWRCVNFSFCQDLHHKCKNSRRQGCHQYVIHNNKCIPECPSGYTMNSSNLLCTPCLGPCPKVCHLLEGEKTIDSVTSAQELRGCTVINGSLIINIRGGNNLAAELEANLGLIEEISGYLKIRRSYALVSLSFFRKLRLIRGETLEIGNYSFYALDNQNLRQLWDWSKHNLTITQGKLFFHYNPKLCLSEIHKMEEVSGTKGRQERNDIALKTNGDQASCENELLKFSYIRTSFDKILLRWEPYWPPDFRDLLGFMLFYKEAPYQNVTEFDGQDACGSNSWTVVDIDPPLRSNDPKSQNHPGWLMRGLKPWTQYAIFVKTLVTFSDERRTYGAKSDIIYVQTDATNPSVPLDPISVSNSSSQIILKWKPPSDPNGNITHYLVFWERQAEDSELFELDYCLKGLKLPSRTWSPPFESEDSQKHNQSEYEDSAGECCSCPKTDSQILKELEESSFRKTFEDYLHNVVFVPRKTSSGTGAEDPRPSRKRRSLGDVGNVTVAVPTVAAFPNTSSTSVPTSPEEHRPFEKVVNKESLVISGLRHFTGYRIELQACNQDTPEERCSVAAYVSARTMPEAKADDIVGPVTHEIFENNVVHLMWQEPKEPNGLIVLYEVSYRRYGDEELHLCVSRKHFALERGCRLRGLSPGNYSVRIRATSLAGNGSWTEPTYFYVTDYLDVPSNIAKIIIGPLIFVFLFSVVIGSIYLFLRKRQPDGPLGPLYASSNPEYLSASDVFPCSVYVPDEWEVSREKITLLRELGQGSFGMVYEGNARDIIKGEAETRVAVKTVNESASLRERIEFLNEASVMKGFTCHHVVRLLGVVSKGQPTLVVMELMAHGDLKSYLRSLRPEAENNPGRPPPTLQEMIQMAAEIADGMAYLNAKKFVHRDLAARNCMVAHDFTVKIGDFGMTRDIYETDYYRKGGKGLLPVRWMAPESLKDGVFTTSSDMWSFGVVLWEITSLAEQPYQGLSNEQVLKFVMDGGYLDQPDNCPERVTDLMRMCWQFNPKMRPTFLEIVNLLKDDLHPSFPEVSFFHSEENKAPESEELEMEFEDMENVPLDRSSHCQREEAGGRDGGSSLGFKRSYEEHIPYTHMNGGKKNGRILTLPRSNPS

T4 sequence (P06213 28-1382): as above
T5 sequence (P06213 28-1382): as above
T2 sequence (P08069 31-1367): as the sequence (P08069 31-1367, species assumed) above
T3 sequence (P00533 25-1210): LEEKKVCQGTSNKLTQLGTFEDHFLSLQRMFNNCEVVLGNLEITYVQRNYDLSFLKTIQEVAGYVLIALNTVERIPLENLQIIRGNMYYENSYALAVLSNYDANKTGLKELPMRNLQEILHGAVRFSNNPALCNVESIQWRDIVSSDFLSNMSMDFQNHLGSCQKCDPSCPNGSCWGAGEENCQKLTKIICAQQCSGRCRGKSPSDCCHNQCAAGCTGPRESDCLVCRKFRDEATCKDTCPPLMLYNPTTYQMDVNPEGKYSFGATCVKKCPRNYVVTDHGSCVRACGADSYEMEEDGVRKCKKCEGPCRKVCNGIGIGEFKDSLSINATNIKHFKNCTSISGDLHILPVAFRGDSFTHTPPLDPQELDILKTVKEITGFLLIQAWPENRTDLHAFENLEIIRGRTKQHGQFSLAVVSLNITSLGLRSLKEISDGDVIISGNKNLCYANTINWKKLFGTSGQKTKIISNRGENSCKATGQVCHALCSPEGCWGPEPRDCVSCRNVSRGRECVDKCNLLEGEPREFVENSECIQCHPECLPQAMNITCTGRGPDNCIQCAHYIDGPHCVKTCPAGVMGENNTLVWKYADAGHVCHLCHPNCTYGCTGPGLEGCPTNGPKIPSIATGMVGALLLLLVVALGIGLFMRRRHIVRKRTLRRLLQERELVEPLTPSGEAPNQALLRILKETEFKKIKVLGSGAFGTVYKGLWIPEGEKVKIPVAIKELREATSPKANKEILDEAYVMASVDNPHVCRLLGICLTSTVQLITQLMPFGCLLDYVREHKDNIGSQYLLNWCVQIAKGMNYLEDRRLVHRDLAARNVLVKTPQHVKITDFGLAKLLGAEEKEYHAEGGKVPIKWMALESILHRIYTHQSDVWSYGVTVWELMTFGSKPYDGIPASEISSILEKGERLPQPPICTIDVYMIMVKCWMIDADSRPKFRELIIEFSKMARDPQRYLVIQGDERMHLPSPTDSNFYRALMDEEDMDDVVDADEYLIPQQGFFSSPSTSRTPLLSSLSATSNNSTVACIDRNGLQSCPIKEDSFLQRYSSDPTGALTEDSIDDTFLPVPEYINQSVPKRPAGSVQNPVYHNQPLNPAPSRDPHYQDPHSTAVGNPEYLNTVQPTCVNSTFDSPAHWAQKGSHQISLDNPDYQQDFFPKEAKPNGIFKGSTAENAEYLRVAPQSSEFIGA
Sequence of isolated IGF-1R kinase (P08069 31-1367): as the sequence (P08069 31-1367, species assumed) above

| Compound | Effect on IGF-1R [1] | Decrease of pTG substrate phosphorylation by the IGF-1 receptor ([2]; 0.5 μM) | Level of phosphorylation in intact cells (% OD), substrate EGFR [3] [% OD] | Inhibition of autophosphorylation of IGF-1R in vitro [4] | Interference with substrate phosphorylation of insulin receptor tyrosine kinase [5] | Level of phosphorylation in intact cells (% OD), substrate PDGFR [6] [% OD] | Level of phosphorylation in intact cells (% OD), substrate FGFR [7] [% OD] | Level of phosphorylation in intact cells (% OD), substrate IRS-1 [8] [% OD] | Level of IGF-1R phosphorylation in intact cells (% OD) [9] [% OD] | Level of phosphorylation in intact cells (% OD), substrate IGF-1R [9] [% OD] | Level of phosphorylation in intact cells (% OD), substrate IR [10] [% OD] | Interference with substrate phosphorylation of epidermal growth factor receptor tyrosine kinase [11] | Interference with substrate phosphorylation of other non-IGF-1R kinases [12] | IC50 [13] [nM] | Effect on insulin receptor kinase [14] | Effect on IGF-1R substrate phosphorylation [2] |
| --- | --- | --- | --- | --- | --- | --- | --- | --- | --- | --- | --- | --- | --- | --- | --- | --- |
| COc1cc(C2c3cc4c(cc3C(OC3OC5COC(c6ccccc6)OC5C(O)C3O)C3COC(=O)C23)OCO4)cc(OC)c1OC [podophyllotoxin-4,6-O-benzylidene-β-D-glucopyranoside] | completely disappeared | – | – | – | – | – | – | – | – | – | – | – | – | – | – | – |
| COc1cc(C2c3cc(O)c(O)cc3CC3COC(=O)C32)cc(OC)c1OC (stereo not drawn) [4,5-demethylene-deoxypodophyllotoxin] | – | about 35% | 100 | inhibited | failed to interfere | 99 | 104 | 70 | 73 | 65 | 102 | failed to interfere | failed to interfere | – | – | – |
| N#C/C(=C\c1ccc(O)c(O)c1)C(=O)c1ccc(O)c(O)c1 [tyrphostin AG 538] | – | – | – | – | – | – | – | – | – | – | – | – | – | 400 | blocked | – |
| COc1cc([C@@H]2c3cc4c(cc3[C@H](O)[C@H]3COC(=O)[C@H]23)OCO4)cc(OC)c1OC [Podophyllotoxin, podophyllotoxin] | – | – | 102 | inhibited | had only effect on IGF-1R | 101 | 99 | 9 | 10 | 12 | 103 | had only effect on IGF-1R | had only effect on IGF-1R | – | – | had only effect on IGF-1R |
